Data from publication PMC9120017, “Inhibition mechanism of the chloride channel TMEM16A by the pore blocker 1PBC” (Nature Communications, 2022).
Read-outs that look alike come from different tables or passages of the source.

Target: T1, mouse TMEM16A mutant Y514A (Mus musculus, UniProt Q8BHY3, Y514A)
T1 construct: expressed in transfected cells; host or cells: HEK293T
T1 sequence (Q8BHY3 1-960 Y514A): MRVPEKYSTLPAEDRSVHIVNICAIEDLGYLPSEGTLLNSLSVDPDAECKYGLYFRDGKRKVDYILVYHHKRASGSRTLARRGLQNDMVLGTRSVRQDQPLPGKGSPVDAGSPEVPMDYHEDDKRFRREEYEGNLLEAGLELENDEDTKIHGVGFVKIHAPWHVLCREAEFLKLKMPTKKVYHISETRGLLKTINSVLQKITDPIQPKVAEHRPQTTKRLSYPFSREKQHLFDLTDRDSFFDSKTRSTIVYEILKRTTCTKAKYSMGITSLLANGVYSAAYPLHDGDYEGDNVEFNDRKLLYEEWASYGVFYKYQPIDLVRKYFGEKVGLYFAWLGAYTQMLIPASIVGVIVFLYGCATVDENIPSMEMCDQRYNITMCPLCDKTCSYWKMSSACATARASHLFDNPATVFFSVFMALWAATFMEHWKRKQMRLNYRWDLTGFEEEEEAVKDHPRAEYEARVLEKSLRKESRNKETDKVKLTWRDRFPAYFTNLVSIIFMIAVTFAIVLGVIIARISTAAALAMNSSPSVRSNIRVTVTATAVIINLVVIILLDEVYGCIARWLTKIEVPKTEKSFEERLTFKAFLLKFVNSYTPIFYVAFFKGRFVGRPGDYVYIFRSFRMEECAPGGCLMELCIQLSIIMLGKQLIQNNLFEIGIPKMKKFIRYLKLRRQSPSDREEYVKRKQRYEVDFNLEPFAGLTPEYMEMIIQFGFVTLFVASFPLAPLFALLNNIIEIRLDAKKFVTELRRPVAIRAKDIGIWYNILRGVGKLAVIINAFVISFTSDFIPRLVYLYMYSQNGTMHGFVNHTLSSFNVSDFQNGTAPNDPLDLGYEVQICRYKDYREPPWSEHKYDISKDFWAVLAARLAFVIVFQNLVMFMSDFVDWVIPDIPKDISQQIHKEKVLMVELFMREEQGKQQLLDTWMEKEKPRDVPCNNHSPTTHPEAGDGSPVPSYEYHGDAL
Test: Inside-out patch recording of 1PBC block, mutant Y514A
Format: cell-based
Conditions: for remaining activity at 10 µM: 1PBC 10; for remaining activity at 10 µM / remaining activity at 30 µM / remaining activity at 100 µM: read-out: fraction of unblocked current; for remaining activity at 30 µM: 1PBC 30; for remaining activity at 100 µM: 1PBC 100
Procedure: HEK293T cells (ATCC CRL-1573) were maintained in Dulbecco’s modified Eagle’s medium (DMEM; Sigma-Aldrich) supplemented with 10 U ml^−1 penicillin, 0.1 mg ml^−1 streptomycin (Sigma-Aldrich), 2 mM L-glutamine (Sigma-Aldrich), and 10% FBS (Sigma-Aldrich) in a humidified atmosphere containing 5% CO2 at 37 °C. HEK293S GnTI^− cells (ATCC CRL-3022) were maintained in HyClone HyCell TransFx-H medium (GE Healthcare) supplemented with 10 U ml^−1 penicillin, 0.1 mg ml^−1 streptomycin, 4 mM L-glutamine, 0.15% poloxamer 188 (Sigma-Aldrich), and 1% FBS in an atmosphere containing 5% CO2 at 185 rpm at 37 °C. The ac splice variant of mouse TMEM16A (UniProt ID: Q8BHY3), mouse TMEM16B (UniProt ID: Q8CFW1), or mouse TMEM16F (UniProt ID: Q6P9J9) bearing a 3C cleavage site, a Venus YFP, a Myc tag, and a Streptavidin-binding peptide (SBP) downstream of the open reading frame in a modified pcDNA3.1 vector (Invitrogen) were used as described previously[21],[31]. Mutations were introduced using a modified QuikChange method[58] and were verified by sequencing.
HEK293T cells were transfected with 3–4 μg DNA per 6 cm Petri dish using the calcium phosphate co-precipitation method and were used within 24–96 h after transfection. Recordings were performed on inside-out patches excised from HEK293T cells expressing the construct of interest. Patch pipettes were pulled from borosilicate glass capillaries (O.D. 1.5 mm, I.D. 0.86 mm, Sutter Instrument) and were fire-polished with a microforge (Narishige) before use. Pipette resistance was typically 3–8 MΩ when filled with the recording solutions detailed below. Seal resistance was typically 4 GΩ or higher. Voltage-clamp recordings were made using Axopatch 200B, Digidata 1550, and Clampex 10.7 (Molecular Devices). Analog signals were filtered with the in-built 4-pole Bessel filter at 10 kHz and were digitized at 20 kHz. Solution exchange was achieved using a gravity-fed system through a theta glass pipette mounted on an ultra-fast piezo-driven stepper (Siskiyou). […] All recordings were performed at 20 °C.
A symmetrical ionic condition was used throughout. Stock solution with Ca^2+-EGTA contained 150 mM NaCl, 5.99 mM Ca(OH)2, 5 mM EGTA, and 10 mM HEPES at pH 7.40. Stock solution with EGTA contained 150 mM NaCl, 5 mM EGTA, and 10 mM HEPES at pH 7.40. Free Ca^2+ concentrations were adjusted by mixing the stock solutions at the required ratios calculated using the WEBMAXC program (http://web.stanford.edu/~cpatton/webmaxcS.htm). Patch pipettes were filled with the stock solution with Ca^2+-EGTA, which has a free Ca^2+ concentration of 1 mM. 1PBC (ChemBridge) stock was reconstituted in anhydrous DMSO (Sigma-Aldrich) at 100 mM and stored at −20 °C. Working solutions with 1PBC were prepared by serial dilution. Unless otherwise stated, experiments were performed at a saturating Ca^2+ concentration as shown in Supplementary Table 1 and the primary data were corrected for current rundown as described previously[21],[25].
Concentration-response relations, obtained from the ratio of the I-V plots before and after the application of the blocker, were fitted to the Hill equation,1 I/Imax=1/1+IC50/[blocker]^h where I/Imax is the normalized current responses, IC50 defines the concentration at which inhibition is at its half-maximum, and h is the Hill coefficient.

**Q.** Which IC50 (0 mV, 2 µM Ca2+) does the source give for N#Cc1c(C(F)(F)F)cc(O)n2c1nc1ccccc12 [1PBC] here?
**A.** 22.8 µM

**Q.** And the remaining activity at 10 µM (0 mV)?
**A.** 71.6%

**Q.** What about the remaining activity at 10 µM (20 mV) of the same molecule?
**A.** 67.7%

**Q.** And the remaining activity at 10 µM (40 mV)?
**A.** 65.8%

**Q.** What about the remaining activity at 10 µM (60 mV) of the same molecule?
**A.** 59.8%

**Q.** And the remaining activity at 10 µM (80 mV)?
**A.** 58.2%

**Q.** What about the remaining activity at 10 µM (100 mV) of the same molecule?
**A.** 57.1%

**Q.** What about the remaining activity at 10 µM (120 mV) of the same molecule?
**A.** 53.3%

**Q.** And the remaining activity at 10 µM (140 mV)?
**A.** 53.7%

**Q.** What about the remaining activity at 10 µM (-20 mV) of the same molecule?
**A.** 75.5%

**Q.** What about the remaining activity at 10 µM (-40 mV) of the same molecule?
**A.** 78.8%

**Q.** What about the remaining activity at 10 µM (-60 mV) of the same molecule?
**A.** 81.3%

**Q.** And the remaining activity at 10 µM (-80 mV)?
**A.** 82.9%

**Q.** What about the remaining activity at 10 µM (-100 mV) of the same molecule?
**A.** 85.5%

**Q.** What about the remaining activity at 10 µM (-120 mV) of the same molecule?
**A.** 87.1%

**Q.** What about the remaining activity at 10 µM (-140 mV) of the same molecule?
**A.** 86.2%

**Q.** What about the remaining activity at 30 µM (0 mV) of the same molecule?
**A.** 41%

**Q.** And the remaining activity at 30 µM (20 mV)?
**A.** 37.8%

**Q.** What about the remaining activity at 30 µM (40 mV) of the same molecule?
**A.** 34.4%

**Q.** What about the remaining activity at 30 µM (60 mV) of the same molecule?
**A.** 31.9%

**Q.** And the remaining activity at 30 µM (80 mV)?
**A.** 28.9%

**Q.** And the remaining activity at 30 µM (100 mV)?
**A.** 27.6%

**Q.** And the remaining activity at 30 µM (120 mV)?
**A.** 26.5%

**Q.** What about the remaining activity at 30 µM (140 mV) of the same molecule?
**A.** 26.4%

**Q.** And the remaining activity at 30 µM (-20 mV)?
**A.** 44.3%

**Q.** And the remaining activity at 30 µM (-40 mV)?
**A.** 50%

**Q.** What about the remaining activity at 30 µM (-60 mV) of the same molecule?
**A.** 56.5%

**Q.** And the remaining activity at 30 µM (-80 mV)?
**A.** 60.4%

**Q.** What about the remaining activity at 30 µM (-100 mV) of the same molecule?
**A.** 64.5%

**Q.** What about the remaining activity at 30 µM (-120 mV) of the same molecule?
**A.** 67.9%

**Q.** What about the remaining activity at 30 µM (-140 mV) of the same molecule?
**A.** 70.2%

**Q.** And the remaining activity at 100 µM (0 mV)?
**A.** 19.2%

**Q.** What about the remaining activity at 100 µM (20 mV) of the same molecule?
**A.** 15.9%

**Q.** What about the remaining activity at 100 µM (40 mV) of the same molecule?
**A.** 14.2%

**Q.** What about the remaining activity at 100 µM (60 mV) of the same molecule?
**A.** 13.7%

**Q.** And the remaining activity at 100 µM (80 mV)?
**A.** 12.7%

**Q.** What about the remaining activity at 100 µM (100 mV) of the same molecule?
**A.** 11.3%

**Q.** And the remaining activity at 100 µM (120 mV)?
**A.** 11.7%

**Q.** And the remaining activity at 100 µM (140 mV)?
**A.** 12.2%

**Q.** And the remaining activity at 100 µM (-20 mV)?
**A.** 22.6%

**Q.** And the remaining activity at 100 µM (-40 mV)?
**A.** 25.4%

**Q.** And the remaining activity at 100 µM (-60 mV)?
**A.** 29.3%

**Q.** And the remaining activity at 100 µM (-80 mV)?
**A.** 32.8%

**Q.** And the remaining activity at 100 µM (-100 mV)?
**A.** 38%

**Q.** And the remaining activity at 100 µM (-120 mV)?
**A.** 42.9%

**Q.** And the remaining activity at 100 µM (-140 mV)?
**A.** 48.1%

**Q.** And the IC50 (20 mV, 2 µM Ca2+)?
**A.** 19.4 µM

**Q.** And the IC50 (40 mV, 2 µM Ca2+)?
**A.** 17.3 µM

**Q.** What about the IC50 (60 mV, 2 µM Ca2+) of the same molecule?
**A.** 14.6 µM

**Q.** And the “log-fold IC50 (change of mutant vs WT)” value (80 mV)?
**A.** 0.6902

**Q.** And the IC50 (80 mV, 2 µM Ca2+)?
**A.** 13.3 µM

**Q.** And the IC50 (100 mV, 2 µM Ca2+)?
**A.** 12.5 µM

**Q.** And the IC50 (120 mV, 2 µM Ca2+)?
**A.** 11.3 µM

**Q.** What about the IC50 (140 mV, 2 µM Ca2+) of the same molecule?
**A.** 11.5 µM

**Q.** And the IC50 (-20 mV, 2 µM Ca2+)?
**A.** 26.9 µM

**Q.** What about the IC50 (-40 mV, 2 µM Ca2+) of the same molecule?
**A.** 32.7 µM

**Q.** And the IC50 (-60 mV, 2 µM Ca2+)?
**A.** 40.6 µM

**Q.** What about the IC50 (-80 mV, 2 µM Ca2+) of the same molecule?
**A.** 47.4 µM

**Q.** What about the IC50 (-100 mV, 2 µM Ca2+) of the same molecule?
**A.** 58 µM

**Q.** What about the IC50 (-120 mV, 2 µM Ca2+) of the same molecule?
**A.** 69.6 µM

**Q.** What about the IC50 (-140 mV, 2 µM Ca2+) of the same molecule?
**A.** 81 µM

**Q.** What about the IC50 (Y514A, V 0 mV) of the same molecule?
**A.** 22.8 µM

**Q.** And the IC50 (Y514A, V 20 mV)?
**A.** 19.4 µM

**Q.** What about the IC50 (Y514A, V 40 mV) of the same molecule?
**A.** 17.3 µM

**Q.** What about the IC50 (Y514A, V 60 mV) of the same molecule?
**A.** 14.6 µM

**Q.** What about the IC50 (Y514A, V 80 mV) of the same molecule?
**A.** 13.3 µM

**Q.** And the IC50 (Y514A, V 100 mV)?
**A.** 12.5 µM

**Q.** And the IC50 (Y514A, V 120 mV)?
**A.** 11.3 µM

**Q.** What about the IC50 (Y514A, V 140 mV) of the same molecule?
**A.** 11.5 µM

**Q.** What about the IC50 (Y514A, V -20 mV) of the same molecule?
**A.** 26.9 µM

**Q.** And the IC50 (Y514A, V -40 mV)?
**A.** 32.7 µM

**Q.** What about the IC50 (Y514A, V -60 mV) of the same molecule?
**A.** 40.6 µM

**Q.** And the IC50 (Y514A, V -80 mV)?
**A.** 47.4 µM

**Q.** And the IC50 (Y514A, V -100 mV)?
**A.** 58 µM

**Q.** What about the IC50 (Y514A, V -120 mV) of the same molecule?
**A.** 69.6 µM

**Q.** And the IC50 (Y514A, V -140 mV)?
**A.** 81 µM
